Laboratory results as given in PubChem BioAssay AID1845212 (Molecular Pharmacology Branch, DTP, NCI, 2023).

System: NCI-H719 tumor spheroids, viability
Experiment: Anticancer human tumor NCI-H719 cell line growth inhibition;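 note: spheroids exposed to compounds for seven days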;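 for viability, T/C: percent viability relative to DMSO vehicle control as 100%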
Conditions: spheroids with HUVEC and MSC; for IC50: curve of first compound; for viability, T/C: stronger effect = lower value
Method in brief: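 Single agents and combinations were tested on spheroids built from tumor cells plus HUVEC and hMSC, at half-log dilutions starting at or near clinical Cmax, else 10 microM; final DMSO 0.25% (v/v).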

[1] = second compound 1 µM, first compound 0.00949 µM
[2] = second compound 1 µM, first compound 0.03 µM
[3] = second compound 1 µM, first compound 0.0949 µM
[4] = second compound 1 µM, first compound 0.3 µM
[5] = second compound 1 µM, first compound 0.949 µM
[6] = second compound 1 µM, first compound 3 µM
[7] = second compound 3.16 µM, first compound 0.00949 µM
[8] = second compound 3.16 µM, first compound 0.03 µM
[9] = second compound 3.16 µM, first compound 0.0949 µM
[10] = second compound 3.16 µM, first compound 0.3 µM
[11] = second compound 3.16 µM, first compound 0.949 µM
[12] = second compound 3.16 µM, first compound 3 µM
[13] = second compound 10 µM, first compound 0.00949 µM
[14] = second compound 10 µM, first compound 0.03 µM
[15] = second compound 10 µM, first compound 0.0949 µM
[16] = second compound 10 µM, first compound 0.3 µM
[17] = second compound 10 µM, first compound 0.949 µM
[18] = second compound 10 µM, first compound 3 µM
[19] = second compound 31.6 µM, first compound 0.00949 µM
[20] = second compound 31.6 µM, first compound 0.03 µM
[21] = second compound 31.6 µM, first compound 0.0949 µM
[22] = second compound 31.6 µM, first compound 0.3 µM
[23] = second compound 31.6 µM, first compound 0.949 µM
[24] = second compound 31.6 µM, first compound 3 µM
[25] = second compound 100 µM, first compound 0.00949 µM
[26] = second compound 100 µM, first compound 0.03 µM
[27] = second compound 100 µM, first compound 0.0949 µM
[28] = second compound 100 µM, first compound 0.3 µM
[29] = second compound 100 µM, first compound 0.949 µM
[30] = second compound 100 µM, first compound 3 µM

Structure (SMILES)	IC50 (second compound 1 µM) [nM]	IC50 (second compound 3.16 µM) [nM]	IC50 (second compound 10 µM) [nM]	IC50 (second compound 31.6 µM) [nM]	IC50 (second compound 100 µM) [nM]	viability, T/C [3] [%]	viability, T/C [4] [%]	viability, T/C [5] [%]	viability, T/C [6] [%]	viability, T/C [9] [%]	viability, T/C [10] [%]	viability, T/C [11] [%]	viability, T/C [12] [%]	viability, T/C [15] [%]	viability, T/C [16] [%]	viability, T/C [17] [%]	viability, T/C [18] [%]	viability, T/C [21] [%]	viability, T/C [22] [%]	viability, T/C [23] [%]	also measured
CNCc1ccc(-c2cc(-c3nc(-c4ccc(S(=O)(=O)C(C)C)cc4)cnc3N)on2)cc1 + Cn1nnc2c(C(N)=O)ncn2c1=O	131	95.4	162	94.4	33.6	43.5	39	8.27	0.15	46.7	18.9	9.22	0.14	80.2	15	8.28	18.1	49.8	15.7	8.28	viability, T/C [1]: 88.2%; viability, T/C [2]: 95%; viability, T/C [7]: 97.6%; viability, T/C [8]: 94.2%; viability, T/C [13]: 101%; viability, T/C [14]: 93.7%; viability, T/C [19]: 105%; viability, T/C [20]: 106%; viability, T/C [24]: 37.8%; viability, T/C [25]: 80%; viability, T/C [26]: 52.8%; viability, T/C [27]: 24.4%; viability, T/C [28]: 9.66%; viability, T/C [29]: 39.1%; viability, T/C [30]: 0.23%
Cc1sc2c(c1C)C(c1ccc(Cl)cc1)=NC(CC(=O)Nc1ccc(O)cc1)c1nnc(C)n1-2 (stereo not given) + Cn1nnc2c(C(N)=O)ncn2c1=O	79.9	137	201	71	54.1	41.9	20.6	4.49	3.76	65.9	15.6	4.84	3.28	73.1	39.8	4.17	2.94	31.9	14.3	3.77	viability, T/C [1]: 90.8%; viability, T/C [2]: 80.5%; viability, T/C [7]: 95.2%; viability, T/C [8]: 98.7%; viability, T/C [13]: 96.5%; viability, T/C [14]: 89%; viability, T/C [19]: 107%; viability, T/C [20]: 104%; viability, T/C [24]: 2.95%; viability, T/C [25]: 88%; viability, T/C [26]: 65%; viability, T/C [27]: 37%; viability, T/C [28]: 6.38%; viability, T/C [29]: 3.72%; viability, T/C [30]: 3%
Cn1ncnc1[C@H]1c2n[nH]c(=O)c3cc(F)cc(c23)N[C@@H]1c1ccc(F)cc1 + Cn1nnc2c(C(N)=O)ncn2c1=O	< 9.49	< 9.49	< 9.49	< 9.49	< 9.49	7.66	7.07	6.65	7.52	7.04	7.11	7.41	8.3	7.6	6.29	30.5	8.25	7.1	7.06	7.26	viability, T/C [1]: 18.9%; viability, T/C [2]: 7.46%; viability, T/C [7]: 14.8%; viability, T/C [8]: 7.76%; viability, T/C [13]: 7.72%; viability, T/C [14]: 6.58%; viability, T/C [19]: 6.42%; viability, T/C [20]: 7.02%; viability, T/C [24]: 9.15%; viability, T/C [25]: 7.03%; viability, T/C [26]: 6.67%; viability, T/C [27]: 6.67%; viability, T/C [28]: 7.34%; viability, T/C [29]: 7.7%; viability, T/C [30]: 9.27%
O=C(c1cc(Cc2n[nH]c(=O)c3ccccc23)ccc1F)N1CCN(C(=O)C2CC2)CC1 + Cn1nnc2c(C(N)=O)ncn2c1=O	1720	1360	1950	< 94.9	< 94.9	73.7	56	56.1	42.1	64.2	60.5	67	19.5	55.8	66.7	56	43.9	52.4	53.3	34.1	viability, T/C (second compound 1 µM, first compound 9.49 µM): 7.25%; viability, T/C (second compound 1 µM, first compound 30 µM): 6.89%; viability, T/C (second compound 3.16 µM, first compound 9.49 µM): 20.2%; viability, T/C (second compound 3.16 µM, first compound 30 µM): 7.9%; viability, T/C (second compound 10 µM, first compound 9.49 µM): 29.8%; viability, T/C (second compound 10 µM, first compound 30 µM): 7.79%; viability, T/C [24]: 40.7%; viability, T/C (second compound 31.6 µM, first compound 9.49 µM): 42.8%; viability, T/C (second compound 31.6 µM, first compound 30 µM): 6.8%; viability, T/C [27]: 43.5%; viability, T/C [28]: 21.9%; viability, T/C [29]: 29.4%; viability, T/C [30]: 51.8%; viability, T/C (second compound 100 µM, first compound 9.49 µM): 7.29%; viability, T/C (second compound 100 µM, first compound 30 µM): 7.19%
